SMILES strings stand for the structures. The source made the active and inactive calls.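 How the source made its calls: active means blocking male or female gamete formation with potency of about 10 µM or stronger; inactive means the rest.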

The test system of one test is P. falciparum 3D7A gametocytes, male exflagellation, 48 h. In words: transmission-blocking activity on Pf gametocytes – dual gamete formation, strain 3D7A, dose response (AID 2060597).
Settings: not given
As to `O=C1CSc2ccc(C(=O)Nc3ccc(-c4nnc5n4CCCCC5)cc3)cc2N1`, the concentration for half-maximal inhibition (IC50) is more than 10 µM.

For the compound `O=C(CCN=C1NS(=O)(=O)c2ccccc21)Nc1ccc(S(=O)(=O)N2CCCC2)cc1`, the IC50 is more than 10 µM.

For `CCN(CC)c1ccc(C(=O)COc2ccc3c(c2)CCNCC3)cc1`, the IC50 was more than 10 µM.

For the compound `O=C1CCCN1c1ccc(S(=O)(=O)N2CCN(S(=O)(=O)c3ccccc3)CC2)cc1`, the IC50 was more than 10 µM.

Compound `N#Cc1c(N)n[nH]c1CCCNC(=O)c1ccc(Cl)c(S(=O)(=O)N2CCCC2)c1` returned an IC50 of more than 10 µM.

The compound `Cc1ccc2nc(CCNC(=O)CCS(=O)(=O)c3ccc4c(c3)CC(=O)N4C)[nH]c2c1` showed an IC50 of more than 10 µM.

On to `CCCOc1cncc(S(=O)(=O)c2ccc3c(c2)CCN(C2CCC2)CC3)c1`, for which the IC50 was more than 10 µM.

In turn, `NC(=O)CC1CCN(C(=O)c2sc3sccc3c2Cl)CC1` showed a 50% inhibitory concentration (IC50) of more than 10 µM.

Regarding `COc1ccc(-c2ccc(CNC(=O)c3cc(C(=O)NC(C)C)ccc3Cl)cc2)cn1`, the IC50 was more than 10 µM.

For the compound `O=C(CCCc1c[nH]c2ccccc12)N1CCN(c2ccc(N3CCOCC3)nn2)CC1`, the IC50 is more than 10 µM.

Take `CC(C)Oc1ccc(-c2nnc(Oc3cccc4c3CCN(CCC(N)=O)CC4)s2)cc1C#N`: the IC50 is more than 10 µM.

In turn, `COc1ccc(C(=O)N2CCN(c3ccc(-n4cccn4)nn3)CC2)cc1OC` showed an IC50 of more than 10 µM.

As to `O=C(Nc1ccc(N2CCCC2)nc1)N1CCN(c2cnccn2)CC1`, the IC50 was more than 10 µM.

Take `CN(C(=O)C[C@@H]1CCN(C(=O)C2CC2)C1)c1ccc(-c2ccc(C#N)cc2)cc1`: the IC50 is more than 10 µM.

Take `COc1ccc(N2CCN(C(=O)c3csc(Nc4ccccc4S(C)(=O)=O)n3)CC2)nc1`: the 50% inhibitory concentration (IC50) was more than 10 µM.

Regarding `CCN(C(=O)C=Cc1ccc(S(=O)(=O)N2CCc3ccccc32)cc1)C1CCS(=O)(=O)C1` (stereo not drawn), the IC50 was more than 10 µM.

`O=C(c1cc2ccccc2[nH]1)N1CCC2(CC(Nc3ccncn3)C2)C1` (stereo not drawn) registered a half-maximal inhibitory concentration (IC50) of more than 10 µM.

Consider `COc1ccc2oc(C(=O)NC3CCC(Oc4ncccn4)CC3)cc2c1` (stereo not drawn), for which the half-inhibitory concentration (IC50) is more than 10 µM.

In turn, `O=C(Nc1cccnc1)C1CCN(c2ccc(-c3ccco3)nn2)CC1` displayed a half-maximal inhibitory concentration (IC50) of more than 10 µM.

Take `O=C(/C=C/c1n[nH]c2ccccc12)Nc1ccc(C(=O)NCCN2CCOCC2)cc1`: the half-inhibitory concentration (IC50) was more than 10 µM.

Take `Cc1cc(Cl)ccc1OCC(=O)N1CCc2c(cnc(C)c2CNC(=O)c2ccc(=O)[nH]n2)C1`: the IC50 was more than 10 µM.

The compound `O=C(COc1ccc(Br)cc1F)N1CCN(c2cnccn2)CC1` yielded a concentration for half-maximal inhibition (IC50) of more than 10 µM.

`COc1ccc(NC(=O)c2ccc3c(=O)n(Cc4ccccn4)cnc3c2)cc1N1CCN(C)CC1` gave an IC50 of more than 10 µM.

`O=C(CCCc1ncc(-c2ccccc2)o1)N1CCOC2CCCC21` (stereo not drawn) had an IC50 of more than 10 µM.

Compound `Cc1cc(-c2cnc(N3CCn4c(nnc4C4CC4)C3)nc2-c2ccncc2)on1` registered an IC50 of more than 10 µM.

As to `O=C(Nc1nnc(-c2ccccc2)s1)N1CCCN(c2ncccn2)CC1`, the concentration for half-maximal inhibition (IC50) was more than 10 µM.

The compound `Cc1nn(C2CCS(=O)(=O)C2)c(C)c1CN(C)C(=O)CN1C(=O)NC2(CCCCC2C)C1=O` (stereo not drawn) gave a concentration for half-maximal inhibition (IC50) of more than 10 µM.

`Cc1cccc(-c2nn(Cc3ccc(C(=O)NCCCO)cc3)c(=O)cc2N2CCCC(CO)C2)c1` (stereo not drawn) came in with an IC50 of more than 10 µM.

For `O=C(/C=C/c1n[nH]c2ccccc12)N1CCN(c2cnccn2)CC1`, the 50% inhibitory concentration (IC50) is more than 5.01 µM.

With `Cn1cccc1C1CCCN1CC(=O)Nc1ccc(S(=O)(=O)N2CCOCC2)cc1` (stereo not drawn), the IC50 was more than 10 µM.

In turn, `O=C(CCn1nnc2cc(S(=O)(=O)N3CCCC3)ccc21)N1CCN(c2ccccn2)CC1` gave a concentration for half-maximal inhibition (IC50) of more than 10 µM.

Consider `N#Cc1cccc(NC(=O)CNc2ccccc2C(=O)NC2CC2)c1`, for which the half-inhibitory concentration (IC50) is more than 10 µM.

System in another test: not listed separately
The description is as above. The settings on record: P. falciparum 3D7A gametocytes, male exflagellation, 48 h.
For the compound `O=C(NCCCN1CCc2ccccc21)c1ccc2c(=O)n(Cc3ccccn3)cnc2c1`, the result was active.

As a reminder, the IC50 is the concentration that inhibits the measured activity by half.

These data come from PubChem BioAssay AID2060597 (Global Health Medicines R&D, GSK, 2025).
